This note sets out measurements from patent publication US6528510B1, “HIV protease inhibitors” (Warner-Lambert Company, priority 1998, dated 2003).

pEC50, pKi: −log10 of the molar value. Where two headings read alike, the source gives them in different places.

As a reminder, the CC50 is the concentration that lowers cell viability or growth by half. A higher CC50 goes with better tolerance by the cells. What is called pKi is −log10 of the Ki, conventionally taken in molar units. In general, pEC50 refers to the negative decadic logarithm of the EC50, by convention in mol/L.

Data set [1] can be described thus: Cellular toxicity in uninfected CEM cells, XTT (TC50). The settings on record: human, uninfected CEM cells (lymphocyte derived). As for the experimental part:
(§1) Compound concentrations were 0.32, 1, 3.2, 10, 32, and 100 uM.
(Tetrazolium dyes change colour on reduction, which living cells bring about.)

Data set [2] in a line: Rat blood levels after IV dosing. Format: in vivo. As to conditions: plasma, rats, IV dose of 10 mg/kg; for half-life: read-out: T 1/2 (half life) (converted). As for the experimental part:
(§2) The procedure for pharmacokinetics analysis in dogs and rats was similar. For dog studies, two dogs received a single oral 10 mg/kg dose of the HIV protease inhibitor as a solution. The protease inhibitor was dissolve in 0.1N NaOH followed by buffering or diluting with isotonic phosphate buffer or water depending on solubility. For rat studies. two male rats received a single oral 10 mg/kg gavage dose of the HIV protease inhibitor suspended in 0.5% methylcellulose. For the IV administration, the compounds were dissolved in 0.1N sodium hydroxide at a concentration of 10 mg/ml. The IV dose was given bolus. Blood samples were collected prior to dosing and at 0.25, 0.5, 1, 1.5, 2, 3, 4, 8, 12, and 24 hours postdose. Plasma samples were analyzed for the HIV protease inhibitor using a HPLC procedure. The method involved plasma protein precipitation with acetonitrile, reverse-phase chromatographic separation of the HIV protease inhibitor and internal standard, and quantitation by UV detection. Some plasma samples were concentrated by evaporation prior to injection. Pharmacokinetic parameters were determined by noncompartmental analysis of individual rat-plasma concentration-time curves using WinNonlin. Maximum concentration (Cmax) and time for these to occur (tmax) were recorded as observed. Area under concentration-time curve (AUC) values were obtained using the linear trapezoidal rule.

Data set [3] has as its target T1, Recombinant HIV-1 protease (Human immunodeficiency virus type 1 group M subtype B, UniProt P04585).
T1 construct: Recombinant HIV-1 protease (>96% purity); purchased Bachem Bioscience, Inc. (King of Prussia, Pa.)
The experiment in a line: HIV protease assay (Ki determination, HPLC readout of substrate III cleavage). The data set is classed as biochemical. As for the experimental part:
Recombinant HIV-1 protease (>96% purity) and HIV protease substrate III (the undecapeptide H-His-Lys-Ala-Arg-Val-Leu-Nph-Glu-Ala-Nle-Ser-NH2, 97% purity) were purchased from Bachem Bioscience, Inc. (King of Prussia, Pa.).
The methods employed follow the procedures of Tummino, et al., Archives of Biochemistry and Biophysics, 1995;316:523). […] (total volume, […]). […] The final inhibitor concentrations used were 0 (0.1, 0.2, in some experiments), 0.5, 1, 2, 5, 10, 20, 50, and 100 μM. The solution was mixed, incubated for 5 minutes and the reaction quenched by addition of trifluoracetic acid, 2% final. The (leu-p-nitro-phe) bond of the substrate is cleaved by the enzyme and substrate arid products separated by reverse-phase HPLC. Absorbance was measured at 220 nm, peak areas determined, and percentage conversion to product used to calculate percentage control (=[% conversion (+inhibitor)/% conversion (−inhibitor)]×100).

Data set [4] concerns HIV infected lymphocyte derived CEM cells. Kind of data set: Cellular infection assay in CEM cells, XTT cytopathic procedure (EC50). As to conditions: for TI (therapeutic index, TC50/EC50): CEM cells; for pEC50: Human immunodeficiency virus 1, CCRF-CEM, read-out: Antiviral Efficacy EC50. On the procedure: as §1
The nature of data set [5]: Mouse blood levels after oral dosing. The data set is classed as in vivo, Charles River CD-1 mice. As to conditions: CD-1, mouse, plasma, mice, oral dose of 25 mg/kg; for Cmax: read-out: Cmax (maximum concentration reached within the plasma); for half-life: read-out: T 1/2 (half life) (converted). As for the experimental part: Charles River CD-1 mice were dosed with a 25 mg/kg drug solution orally by gavage. For oral dosing the compounds were dissolved in 0.1N NaOH (20% final volume) and then 0.5% methylcellulose (80% final volume) was added. Blood was drawn and pooled from 5 mice at each time point via heart puncture and was placed in a 15 mL centrifuge tube containing heparin. The plasma stored in 200 μL aliquots at −80° C. until assayed.
Plasma was thawed at room temperature and then 400 μL of acetonitrile was added to each vial and vortexed. Following centrifugation the supernatant was removed and evaporated in a nitrogen evaporator at 48° C. Residue was then resolublized in 200 μL of a 75% water/25% CH3CN solution for HPLC analysis. HPLC analysis used a Zorbax RX-C8 column (4.6×150 mm) with a 25 mM potassium phosphate buffer with 0.1% TFA, pH 3.0. Mobile phases consisted of varying percentages of two buffer mixtures: Buffer A—90% buffer, 10% CH3CN, and Buffer B—30% buffer, 70% CH3CN.
A standard curve ranging from 0.5 to 50 μg/mL was used for each drug tested. Ten times final concentration solutions of drug in water were prepared from stock solutions of 1 mg/mL drug in DMSO. The final 1:10 dilution was then done in mouse plasma obtained from mice described above.

Data set [6] can be described thus: Rat blood levels after oral dosing. The data set is classed as in vivo. As to conditions: male, plasma, rats, oral dose of 10 mg/kg; for Cmax: read-out: Cmax (maximum concentration reached within the plasma); for half-life: read-out: T 1/2 (half life) (converted). As for the experimental part: as §2
Where [7] appears, read: recombinant HIV-1 protease, read-out: Inhib of HIV Protease KI.

Compound `CC(C)C1(CCc2ccccc2CO)CC(O)=C(Sc2cc3cc[nH]c3cc2C(C)(C)C)C(=O)O1` (racemic) [Example 69, 4-Hydroxy-3-(6-tert-butyl-indol-5-ylsulfanyl)-6-[2-(2-hydroxymethyl-phenyl)-ethyl]6-isopropyl-5,6-dihydropyran-2-one] returned a half-maximal cytotoxic concentration (CC50) in data set [1] of 55000 nM. Further, in data set [2], the C0 was found to be 335 µM and the half-life was 4.5 h. For the same compound, in data set [3], the pKi is 9.17. In addition, in data set [4], the “TI (therapeutic index, TC50/EC50)” value stood at 306 and the pEC50 was 6.74.
In the case of `Cc1cc(SC2=C(O)CC(CCc3ccoc3)(C(C)C)OC2=O)c(C(C)(C)C)cc1CO` (stereo not shown) [Example 4, 3-(2-tert-Butyl-4-hydroxymethyl-5-methyl-phenylsulfanyl)-6-(2-furan-3-yl-ethyl)-4-hydroxy-6-isopropyl-5,6-dihydro-pyran-2-one], in data set [5], the Cmax is 54 µM and the half-life is 5.6 h. This compound also showed a 50% cytotoxic concentration (CC50) in data set [1] of 199000 nM. The pKi in data set [3] (setting [7]) was 9.46. Moreover, in data set [4], the “TI (therapeutic index, TC50/EC50)” value is 199 and the negative logarithm of the EC50 (pEC50) is 6.00.
Consider `Cc1cc(SC2=C(O)CC(CCc3ccsc3)(C(C)C)OC2=O)c(C(C)(C)C)cc1CO` (stereo not shown) [Example 7, 3-(2-tert-Butyl-4-hydroxymethyl-5-methyl-phenylsulfanyl)-4-hydroxy-6-isopropyl-6-(2-thiophen-3-yl-ethyl)-5,6-dihydro-pyran-2-one], for which, in data set [5], the Cmax is 40 µM and the half-life is 3.5 h. The midpoint of cytotoxicity in data set [1], the CC50, lay at 110000 nM. For the same compound, the pKi in data set [3] (setting [7]) was 9.77. In data set [4], the “TI (therapeutic index, TC50/EC50)” value worked out at 366 and the pEC50 is 6.52.
On to `Cc1cc(SC2=C(O)CC(CCc3ccsc3CO)(C(C)C)OC2=O)c(C(C)(C)C)cc1N` (stereo not shown) [Example 11, 3-(4-Amino-2-tert-butyl-5-methyl-phenylsulfanyl)-4-hydroxy-6-[2-(2-hydroxymethyl-thiophen-3-yl)-ethyl]-6-isopropyl-5,6-dihydro-pyran-2-one], for which, in data set [1], the CC50 turned out to be 133000 nM. For the same compound, the pKi in data set [3] (setting [7]) was 9.64. Further, in data set [4], the “TI (therapeutic index, TC50/EC50)” value turned out to be 458 and the negative logarithm of the EC50 (pEC50) was 6.54.
Regarding `CC(C)[C@]1(CCc2ccccc2)CC(O)=C(Sc2cc3sc(N)nc3cc2C(C)(C)C)C(=O)O1` [Example 13, (S)-3-(2-Amino-5-tert-butyl-benzothiazol-6-ylsulfanyl)-4-hydroxy-6-isopropyl-6-phenethyl-5,6-dihydro-pyran-2-one], in data set [1], half-maximal cytotoxicity (CC50) was put at 42000 nM. Besides, in data set [4], the “TI (therapeutic index, TC50/EC50)” value turned out to be 152 and the pEC50 is 6.55. In data set [6], the Cmax worked out at 5.1 µM and the half-life is 8.6 h.
On to `CC(C)c1cc2nc(N)sc2cc1SC1=C(O)C[C@@](CCc2ccccc2)(C(C)C)OC1=O` [Example 14, (S)-3-(2-Amino-5-isopropyl-benzothiazol-6-ylsulfanyl)-4-hydroxy-6-isopropyl-6-phenethyl-5,6-dihydro-pyran-2-one], for which the CC50 in data set [1] was determined as 75000 nM. Besides, the negative logarithm of the Ki (pKi) in data set [3] (setting [7]) was 9.17. Moreover, in data set [4], the “TI (therapeutic index, TC50/EC50)” value is 30 and the pEC50 is 5.60.
Compound `CC(C)C1(CCc2ccccc2CO)CC(O)=C(Sc2sc3ccccc3c2C(C)(C)C)C(=O)O1` (stereo not shown) [Example 22, 3-(3-tert-Butyl-benzo[b]thiophen-2-yl-sulfanyl)-4-hydroxy-6-[2-(2-hydroxymethyl-phenyl)-ethyl]-6-isopropyl-5,6-dihydro-pyran-2-one] gave a CC50 in data set [1] of 66000 nM. In addition, in data set [3] (setting [7]), the pKi is 9.07. Further, in data set [4], the “TI (therapeutic index, TC50/EC50)” value was 43 and the pEC50 was 5.82.
For the compound `Cc1cc(SC2=C(O)CC(CCc3nccs3)(C(C)C)OC2=O)c(C(C)(C)C)cc1CO` (stereo not shown) [Example 25, 3-(2-tert-Butyl-4-hydroxymethyl-5-methyl-phenylsulfanyl)-4-hydroxy-6-isopropyl-6-(2-thiazol-2-yl-ethyl)-5,6-dihydro-pyran-2-one], in data set [5], the Cmax stood at 33 µM and the half-life was 3.3 h. Also, the cytotoxic concentration (CC50) in data set [1] was found to be 216000 nM. In addition, in data set [2], the C0 was found to be 120 µM and the half-life is 8 h. Also, the pKi in data set [3] (setting [7]) is 9.24. Besides, in data set [4], the “TI (therapeutic index, TC50/EC50)” value came to 308 and the pEC50 is 6.15. Besides, in data set [6], the Cmax turned out to be 6 µM and the half-life was 12 h.
Turning to `Cc1csc(CCC2(C(C)C)CC(O)=C(Sc3cc(C)c(CO)cc3C(C)(C)C)C(=O)O2)n1` (stereo not shown) [Example 26, 3-(2-tert-Butyl-4-hydroxymethyl-5-methyl-phenylsulfanyl)-4-hydroxy-6-isopropyl-6-[2-(4-methyl-thiazol-2-yl)-ethyl]-5,6-dihydro-pyran-2-one], in data set [1], the midpoint of cytotoxicity, the CC50, lay at 171000 nM. Moreover, the pKi in data set [3] (setting [7]) was 9.35. Also, in data set [4], the “TI (therapeutic index, TC50/EC50)” value amounted to 213 and the negative-log EC50 (pEC50) is 6.10.
For `CC(C)c1cc2ncsc2cc1SC1=C(O)C[C@@](CCc2ccc(O)cc2)(C(C)C)OC1=O` [Example 48, (S)-4-Hydroxy-6-[2-(4-hydroxy-phenyl)-ethyl]-6-isopropyl-3-(5-isopropyl-benzothiazol-6-ylsulfanyl)-5,6-dihydro-pyran-2-one], the midpoint of cytotoxicity in data set [1], the CC50, lay at 29000 nM. The pKi in data set [3] is 9.40. In addition, in data set [4], the “TI (therapeutic index, TC50/EC50)” value came out at 78 and the pEC50 is 6.43.
The like results for `CC(C)[C@]1(CCc2ccccc2)CC(O)=C(Sc2cc3cc[nH]c3cc2C(C)(C)C)C(=O)O1` [Example 73, (S)-3-(6-tert-Butyl-1H-indol-5-yl-sulfanyl)-4-hydroxy-6-isopropyl-6-(2-phenethyl)-5,6-dihydro-pyran-2-one] were, in that order, 42000 nM, 9.27, 69 and 6.21.
Take `CC(C)[C@]1(CCc2ccccc2)CC(O)=C(Sc2cc3sc(NS(C)(=O)=O)nc3cc2C(C)(C)C)C(=O)O1` [Example 79, (S)-N-[5-tert-Butyl-6-(4-hydroxy-6-isopropyl-2-oxo-6-phenethyl-5,6-dihydro-2H-pyran-3-ylsulfanyl)-benzothiazol-2-yl]-methanesulfonamide]: the 50% cytotoxic concentration (CC50) in data set [1] amounted to 125000 nM. For the same compound, the pKi in data set [3] is 8.68. In data set [4], the “TI (therapeutic index, TC50/EC50)” value was determined as 56 and the pEC50 was 5.66.
Compound `CC(C)[C@]1(CCc2cccc(F)c2)CC(O)=C(Sc2cc3sc(N)nc3cc2C(C)(C)C)C(=O)O1` [Example 83, (S)-3-(2-Amino-5-tert-butyl-benzothiazol-6-ylsulfanyl)-6-[2-(3-fluoro-phenyl)-ethyl]-4-hydroxy-6-isopropyl-5,6-dihydro-pyran-2-one] yielded a CC50 in data set [1] of 61000 nM. For the same compound, in data set [2], the C0 was 199 µM and the half-life is 4 h. Moreover, the negative-log Ki (pKi) in data set [3] was 9.36. In addition, in data set [4], the “TI (therapeutic index, TC50/EC50)” value stood at 235 and the negative logarithm of the EC50 (pEC50) was 6.59.
